This note sets out measurements from patent publication US12371428B2 (Exelixis, Inc., priority 2019, dated 2025).

For test [1], the target named is Human KDR (residues 790-1356) (Homo sapiens (Human), UniProt P35968). As to the kind of experiment: Human KDR kinase assay, HTRF KinEase (Example B-2). In kind it is biochemical. The settings on record: protocol of Example B-2 (other compounds). Put shortly:
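Ten compound concentrations (3% DMSO final) were pre-plated, then KDR (790-1356) with biotinylated peptide in Mg/Mn/DTT buffer was added; ATP at Km (4.0 μM) started a 40 min room-temperature reaction. Detection used Eu-TK antibody and SA-XL665 in EDTA buffer; activity normalized to DMSO and reference inhibitor, IC50 by logistic fit.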

Test [2] concerns the target Mer (phospho-Mer, MERTK-transfected 293A cells) (Homo sapiens (Human), UniProt Q12866). The test can be described thus: Mer autophosphorylation ELISA in transient transfected 293A cells (Example H). Type of test: cell-based. Conditions: cellular activity; Mer autophosphorylation ELISA in transient transfected 293A cells. Put shortly: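 IC50 from phospho-Mer ELISA of MERTK-transfected 293A cell lysates after 1 h treatment with serially diluted compound in serum-free medium.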

The target of test [3] is Human MER (residues 528-999) (Homo sapiens (Human), UniProt Q12866). As to the kind of experiment: Human Mer kinase assay, HTRF KinEase (Example C-2). In kind it is biochemical. Conditions: protocol of Example C-2 (other compounds). The essentials:
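Recombinant MER 528-999 (1 ng/well) in buffer with 5 mM MgCl2 and 1 mM DTT was reacted with biotinylated peptide and ATP at Km (40 μM) for 60 min at room temperature. EDTA stop with SA-XL665 and Eu3+ TK antibody, then 665/620 nm HTRF read; IC50 from 4-parameter fit.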

The target of test [4] is Met (phospho-Met, HGF-stimulated PC-3 prostate cancer cells) (Homo sapiens (Human), UniProt P08581). The test can be described thus: Met autophosphorylation ELISA in PC-3 cells (Example F). Type of test: cell-based. Conditions: cellular activity; Met autophosphorylation ELISA in PC-3 cells; read-out: c-Met IC50. Put shortly: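 Compounds were tested on HGF-stimulated PC-3 cells. After 24 h culture and 3 h serum starvation, cells got compound for 1 h and 100 ng/mL HGF for 10 min, and Met tyrosine phosphorylation was measured by ELISA.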

pIC50: −log10 of the molar value.

Mer (phospho-Mer, MERTK-transfected 293A cells), sequence (Q12866 21-999): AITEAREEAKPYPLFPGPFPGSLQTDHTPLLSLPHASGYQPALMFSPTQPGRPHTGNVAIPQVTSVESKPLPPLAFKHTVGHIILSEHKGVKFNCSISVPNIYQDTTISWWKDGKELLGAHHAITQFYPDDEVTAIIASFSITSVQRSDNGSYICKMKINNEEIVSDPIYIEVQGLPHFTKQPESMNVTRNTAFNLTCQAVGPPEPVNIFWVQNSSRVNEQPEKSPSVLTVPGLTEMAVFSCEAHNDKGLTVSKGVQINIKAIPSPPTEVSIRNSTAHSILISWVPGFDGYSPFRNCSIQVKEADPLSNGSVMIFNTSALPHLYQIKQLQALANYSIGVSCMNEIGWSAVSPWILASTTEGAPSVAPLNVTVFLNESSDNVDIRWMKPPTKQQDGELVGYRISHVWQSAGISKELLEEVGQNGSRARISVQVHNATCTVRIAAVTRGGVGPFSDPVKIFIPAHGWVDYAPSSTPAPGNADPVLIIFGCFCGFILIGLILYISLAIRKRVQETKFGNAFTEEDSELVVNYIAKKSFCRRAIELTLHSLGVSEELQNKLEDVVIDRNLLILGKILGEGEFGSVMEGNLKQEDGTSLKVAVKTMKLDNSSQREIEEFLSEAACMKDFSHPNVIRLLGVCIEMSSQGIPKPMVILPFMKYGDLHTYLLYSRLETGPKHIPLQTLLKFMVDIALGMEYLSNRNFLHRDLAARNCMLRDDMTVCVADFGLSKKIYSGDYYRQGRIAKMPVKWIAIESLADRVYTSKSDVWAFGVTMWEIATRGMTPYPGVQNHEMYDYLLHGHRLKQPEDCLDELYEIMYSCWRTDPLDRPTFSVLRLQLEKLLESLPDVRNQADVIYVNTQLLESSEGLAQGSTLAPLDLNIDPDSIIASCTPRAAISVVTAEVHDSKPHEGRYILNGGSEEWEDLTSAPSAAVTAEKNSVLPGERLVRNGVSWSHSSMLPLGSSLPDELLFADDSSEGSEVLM
Met (phospho-Met, HGF-stimulated PC-3 prostate cancer cells), sequence (P08581 25-1390): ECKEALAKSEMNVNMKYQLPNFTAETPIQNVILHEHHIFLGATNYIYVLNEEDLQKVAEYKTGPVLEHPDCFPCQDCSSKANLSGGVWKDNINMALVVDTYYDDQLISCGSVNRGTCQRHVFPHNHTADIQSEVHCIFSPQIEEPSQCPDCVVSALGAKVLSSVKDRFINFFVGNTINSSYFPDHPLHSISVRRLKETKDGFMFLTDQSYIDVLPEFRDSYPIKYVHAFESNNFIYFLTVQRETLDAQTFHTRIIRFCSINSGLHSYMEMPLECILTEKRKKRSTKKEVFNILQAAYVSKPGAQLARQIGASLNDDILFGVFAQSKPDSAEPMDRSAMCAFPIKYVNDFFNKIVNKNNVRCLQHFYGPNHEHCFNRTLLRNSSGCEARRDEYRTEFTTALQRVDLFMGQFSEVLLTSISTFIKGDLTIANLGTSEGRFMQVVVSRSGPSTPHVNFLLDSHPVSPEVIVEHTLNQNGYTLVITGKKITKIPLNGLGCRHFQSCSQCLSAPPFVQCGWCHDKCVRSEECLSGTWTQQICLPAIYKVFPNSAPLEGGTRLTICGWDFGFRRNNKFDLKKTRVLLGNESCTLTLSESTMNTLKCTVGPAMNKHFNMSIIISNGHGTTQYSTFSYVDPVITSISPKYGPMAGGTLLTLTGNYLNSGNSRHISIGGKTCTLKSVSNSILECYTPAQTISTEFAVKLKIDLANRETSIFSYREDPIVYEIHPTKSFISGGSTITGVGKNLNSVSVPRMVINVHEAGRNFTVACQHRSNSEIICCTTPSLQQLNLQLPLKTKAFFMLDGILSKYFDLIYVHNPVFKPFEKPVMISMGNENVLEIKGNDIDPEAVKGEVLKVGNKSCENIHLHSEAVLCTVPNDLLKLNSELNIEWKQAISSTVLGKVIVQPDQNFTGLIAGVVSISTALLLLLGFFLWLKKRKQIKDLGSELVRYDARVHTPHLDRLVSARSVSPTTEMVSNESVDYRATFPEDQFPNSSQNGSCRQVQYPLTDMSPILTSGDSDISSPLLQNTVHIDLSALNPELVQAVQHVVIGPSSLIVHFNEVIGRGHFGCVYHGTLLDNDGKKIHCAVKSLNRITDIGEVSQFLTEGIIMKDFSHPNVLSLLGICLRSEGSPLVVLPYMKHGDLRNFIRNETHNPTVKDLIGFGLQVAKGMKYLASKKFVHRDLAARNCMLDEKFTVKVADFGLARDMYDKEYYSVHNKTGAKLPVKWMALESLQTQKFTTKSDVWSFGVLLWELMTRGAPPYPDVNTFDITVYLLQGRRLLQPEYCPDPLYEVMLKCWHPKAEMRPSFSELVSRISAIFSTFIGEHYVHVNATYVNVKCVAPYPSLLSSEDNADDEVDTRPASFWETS
Human MER (residues 528-999), sequence (Q12866 528-999): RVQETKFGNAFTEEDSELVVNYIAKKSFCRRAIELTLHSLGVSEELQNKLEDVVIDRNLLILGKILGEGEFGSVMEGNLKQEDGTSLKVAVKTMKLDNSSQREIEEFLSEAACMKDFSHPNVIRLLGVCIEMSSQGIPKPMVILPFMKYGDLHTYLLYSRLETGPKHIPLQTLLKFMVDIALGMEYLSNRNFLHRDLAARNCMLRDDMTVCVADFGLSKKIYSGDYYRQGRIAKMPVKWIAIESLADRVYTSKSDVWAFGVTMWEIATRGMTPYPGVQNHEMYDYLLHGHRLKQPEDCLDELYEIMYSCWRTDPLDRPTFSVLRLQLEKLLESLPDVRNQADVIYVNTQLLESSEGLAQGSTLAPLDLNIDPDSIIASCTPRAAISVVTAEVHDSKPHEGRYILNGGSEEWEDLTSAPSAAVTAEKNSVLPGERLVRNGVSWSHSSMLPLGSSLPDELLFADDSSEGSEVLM
Human KDR (residues 790-1356), sequence (P35968 790-1356): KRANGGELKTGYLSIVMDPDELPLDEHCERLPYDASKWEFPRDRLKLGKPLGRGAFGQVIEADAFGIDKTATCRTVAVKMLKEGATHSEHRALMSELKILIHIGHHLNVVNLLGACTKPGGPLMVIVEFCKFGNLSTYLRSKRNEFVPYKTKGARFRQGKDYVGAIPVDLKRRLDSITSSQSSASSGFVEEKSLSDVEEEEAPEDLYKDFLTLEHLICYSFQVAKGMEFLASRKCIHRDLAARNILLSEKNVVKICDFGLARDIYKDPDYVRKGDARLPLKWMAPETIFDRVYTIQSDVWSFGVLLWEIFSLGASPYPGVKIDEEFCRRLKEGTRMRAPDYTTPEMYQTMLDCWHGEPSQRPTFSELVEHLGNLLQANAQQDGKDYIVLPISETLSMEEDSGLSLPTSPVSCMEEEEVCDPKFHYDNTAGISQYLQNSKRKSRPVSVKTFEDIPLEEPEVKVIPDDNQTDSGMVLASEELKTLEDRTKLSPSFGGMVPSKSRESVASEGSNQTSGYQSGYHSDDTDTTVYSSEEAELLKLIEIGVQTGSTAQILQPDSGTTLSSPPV

For the compound `COc1cc2nccc(Oc3ccc(NC(=O)c4cn(C5CC5)c(C)c(-c5ccc(F)cc5)c4=O)cc3F)c2nc1OC` [Compound 433, 1-cyclopropyl-N-[4-[(6,7-dimethoxy-1,5-naphthyridin-4-yl)oxy]-3-fluorophenyl]-5-(4-fluorophenyl)-6-methyl-4-oxopyridine-3-carboxamide], the negative-log IC50 (pIC50) in test [1] was under 6.52; in test [2] it was over 7.00; in test [3], over 7.00; in test [4], over 7.00.
In the case of `COc1cc2nccc(Oc3ccc(NC(=O)c4cn(C5CC5)c(C)c(-c5ccc(F)cc5)c4=O)cc3)c2nc1OC` [Compound 434, 1-cyclopropyl-N-[4-[(6,7-dimethoxy-1,5-naphthyridin-4-yl)oxy]phenyl]-5-(4-fluorophenyl)-6-methyl-4-oxopyridine-3-carboxamide], the pIC50 in test [1] was under 6.52; in test [2], over 7.00; in test [3], over 7.00; in test [4], over 7.00.
For the compound `COc1ccc2nccc(Oc3ccc(NC(=O)c4cn(C5CC5)c(C)c(-c5ccc(F)cc5)c4=O)cc3F)c2n1` [Compound 435, 1-cyclopropyl-N-[3-fluoro-4-[(6-methoxy-1,5-naphthyridin-4-yl)oxy]phenyl]-5-(4-fluorophenyl)-6-methyl-4-oxopyridine-3-carboxamide], the pIC50 was under 6.52 in test [1], over 7.00 in test [2], over 7.00 in test [3] and over 7.00 in test [4].
Regarding `COCCOc1nc2c(Oc3ccc(NC(=O)c4cnc(C)c(-c5ccc(F)cc5)c4O)cc3F)ccnc2cc1C` [Compound 436, N-[3-fluoro-4-[[6-(2-methoxyethoxy)-7-methyl-1,5-naphthyridin-4-yl]oxy]phenyl]-5-(4-fluorophenyl)-4-hydroxy-6-methylpyridine-3-carboxamide], the pIC50 in test [1] was 6.52 to 7.00; in test [2], over 7.00; in test [3], over 7.00; in test [4], over 7.00.
As for `COCCOc1nc2c(Oc3ccc(NC(=O)c4cnc(C)c(-c5ccc(F)cc5)c4O)cc3)ccnc2cc1C` [Compound 437, 5-(4-fluorophenyl)-4-hydroxy-N-[4-[[6-(2-methoxyethoxy)-7-methyl-1,5-naphthyridin-4-yl]oxy]phenyl]-6-methylpyridine-3-carboxamide], the pIC50 in test [1], in test [2], in test [3] and in test [4] was over 7.00 throughout.
For the compound `Cc1cc2nccc(Oc3ccc(NC(=O)c4cnc(C)c(-c5ccc(F)cc5)c4O)cc3F)c2nc1OCCCN1CCOCC1` [Compound 438, N-[3-fluoro-4-[[7-methyl-6-(3-morpholin-4-ylpropoxy)-1,5-naphthyridin-4-yl]oxy]phenyl]-5-(4-fluorophenyl)-4-hydroxy-6-methylpyridine-3-carboxamide], the pIC50 in test [1], in test [2], in test [3] and in test [4] was over 7.00 throughout.
Turning to `COc1cc2nccc(Oc3ccc(NC(=O)c4cn(C5CC5)c(C)c(-c5ccc(F)cc5C)c4=O)cc3F)c2nc1OC` [Compound 439, 1-cyclopropyl-N-[4-[(6,7-dimethoxy-1,5-naphthyridin-4-yl)oxy]-3-fluorophenyl]-5-(4-fluoro-2-methylphenyl)-6-methyl-4-oxopyridine-3-carboxamide], the pIC50 is under 6.52 in test [1], over 7.00 in test [2], over 7.00 in test [3] and over 7.00 in test [4].
As to `COc1cc2nccc(Oc3ccc(NC(=O)c4cn(C5CC5)c(C)c(-c5ccc(F)cc5C)c4=O)cc3)c2nc1OC` [Compound 440, 1-cyclopropyl-N-[4-[(6,7-dimethoxy-1,5-naphthyridin-4-yl)oxy]phenyl]-5-(4-fluoro-2-methylphenyl)-6-methyl-4-oxopyridine-3-carboxamide], the pIC50 is under 6.52 in test [1], over 7.00 in test [2], over 7.00 in test [3] and over 7.00 in test [4].
As to `COc1ccc2nccc(Oc3ccc(NC(=O)c4cn(C5CC5)c(C)c(-c5ccc(F)cc5C)c4=O)cc3F)c2n1` [Compound 441, 1-cyclopropyl-N-[3-fluoro-4-[(6-methoxy-1,5-naphthyridin-4-yl)oxy]phenyl]-5-(4-fluoro-2-methylphenyl)-6-methyl-4-oxopyridine-3-carboxamide], the pIC50 in test [1] was under 6.52; in test [2], over 7.00; in test [3], over 7.00; in test [4], over 7.00.
As to `COc1cc2nccc(Oc3ccc(NC(=O)c4c(C)nc(OC)c(-c5ccc(F)cc5)c4O)cc3F)c2nc1OC` [Compound 442, N-[4-[(6,7-dimethoxy-1,5-naphthyridin-4-yl)oxy]-3-fluorophenyl]-5-(4-fluorophenyl)-4-hydroxy-6-methoxy-2-methylpyridine-3-carboxamide], the pIC50 in test [1], in test [2], in test [3] and in test [4] was over 7.00 each time.
With `COc1cc2nccc(Oc3ccc(NC(=O)c4c(C)nc(O)c(-c5ccc(F)cc5)c4O)cc3F)c2nc1OC` [Compound 443, N-[4-[(6,7-dimethoxy-1,5-naphthyridin-4-yl)oxy]-3-fluorophenyl]-5-(4-fluorophenyl)-4,6-dihydroxy-2-methylpyridine-3-carboxamide], the pIC50 is over 7.00 in test [1], over 7.00 in test [2], over 7.00 in test [3] and 6.52 to 7.00 in test [4].
